# Laboratory results from ChEMBL document CHEMBL4118195, “Synthesis and profiling of benzylmorpholine 1,2,4,5-tetraoxane analogue N205: Towards tetraoxane scaffolds with potential for single dose cure of malaria” (Bioorg Med Chem, 2018).
# Key:
# [1] = Retention time of the compound; format: physicochemical
# [2] = Drug metabolism in mouse liver microsomes assessed as cleaved morpholine ring metabolite formation at 5 uM after 60 mins by UPLC-MS analysis; format: ADME, microsome; conditions: 1 h
# [3] = Drug degradation in mouse liver microsomes assessed as compound half life at 1 uM by UPLC-MS method; format: ADME, microsome
# [4] = Cmax in humanized NOD.Cg-Prkdcscid Il2rgtm1Wjl/SzJ mouse infected with Plasmodium falciparum Pf3D70087/N9 at 5 mg/kg, po administered as single dose after 0.25 to 23 hrs by LC-MS/MS analysis; format: ADME, organism-based; design: dose 5 mg/kg, route oral; conditions: in vivo
# [5] = Drug metabolism in mouse liver microsomes assessed as metabolite M+32 (IV) formation at 5 uM after 60 mins by UPLC-MS analysis; format: ADME, microsome; conditions: 1 h
# [6] = Drug metabolism in rat liver microsomes assessed as open morpholine ring metabolite formation at 5 uM after 60 mins by UPLC-MS analysis; format: ADME, microsome; conditions: 1 h
# Mus musculus [7] = experiment: Dose normalized Cmax in humanized NOD.Cg-Prkdcscid Il2rgtm1Wjl/SzJ mouse infected with Plasmodium falciparum Pf3D70087/N9 at 5 mg/kg, po administered as single dose after 0.25 to 23 hrs by LC-MS/MS analysis; format: ADME, organism-based; conditions: in vivo
# [8] = Drug metabolism in mouse liver microsomes assessed as ring dehydrogenated metabolite formation at 5 uM after 60 mins by UPLC-MS analysis; format: ADME, microsome; conditions: 1 h
# [9] = AUC (0 to t) in humanized NOD.Cg-Prkdcscid Il2rgtm1Wjl/SzJ mouse infected with Plasmodium falciparum Pf3D70087/N9 at 50 mg/kg, po administered as single dose by LC-MS/MS analysis; format: ADME, organism-based; conditions: in vivo
# [10] = Oral bioavailability in Sprague-Dawley rat at 100 mg/kg administered via gavage by LC/MS analysis; format: ADME, organism-based; conditions: in vivo
# [11] = Drug metabolism in rat liver microsomes assessed as metabolite M+16 (III) formation at 5 uM after 60 mins by UPLC-MS analysis; format: ADME, microsome; conditions: 1 h
# [12] = AUC (0 to t) in humanized NOD.Cg-Prkdcscid Il2rgtm1Wjl/SzJ mouse infected with Plasmodium falciparum Pf3D70087/N9 at 15 mg/kg, po administered as single dose by LC-MS/MS analysis; format: ADME, organism-based; conditions: in vivo
# [13] = Intrinsic clearance in rat liver microsomes assessed per mg protein at 1 uM by UPLC-MS analysis; format: ADME, microsome; conditions: read-out: CLH
# [14] = Cmax in humanized NOD.Cg-Prkdcscid Il2rgtm1Wjl/SzJ mouse infected with Plasmodium falciparum Pf3D70087/N9 at 50 mg/kg, po administered as single dose after 0.25 to 23 hrs by LC-MS/MS analysis; format: ADME, organism-based; design: dose 50 mg/kg, route oral; conditions: in vivo
# [15] = Drug metabolism in rat liver microsomes assessed as morpholine ring opened metabolite formation at 5 uM after 60 mins by UPLC-MS analysis; format: ADME, microsome; conditions: 1 h
# Mus musculus [16] = experiment: Dose normalized Cmax in humanized NOD.Cg-Prkdcscid Il2rgtm1Wjl/SzJ mouse infected with Plasmodium falciparum Pf3D70087/N9 at 100 mg/kg, po administered as single dose after 0.25 to 23 hrs by LC-MS/MS analysis; format: ADME, organism-based; conditions: in vivo
# [17] = Drug metabolism in mouse liver microsomes assessed as morpholine ring opened metabolite formation at 5 uM after 60 mins by UPLC-MS analysis; format: ADME, microsome; conditions: 1 h
# [18] = Intrinsic clearance in mouse liver microsomes assessed per mg protein at 1 uM by UPLC-MS analysis; format: ADME, microsome; conditions: read-out: CLH
# [19] = Drug metabolism in human liver microsomes at 5 uM after 60 mins by UPLC-MS analysis; format: ADME, microsome; conditions: read-out: Drug metabolism
# [20] = Drug degradation in human liver microsomes assessed as compound half life at 5 uM by UPLC-MS method; format: ADME, microsome
# [21] = Tmax in humanized NOD.Cg-Prkdcscid Il2rgtm1Wjl/SzJ mouse infected with Plasmodium falciparum Pf3D70087/N9 at 50 mg/kg, po administered as single dose by LC-MS/MS analysis; format: ADME, organism-based; conditions: in vivo
# Mus musculus [22] = experiment: Dose normalized Cmax in humanized NOD.Cg-Prkdcscid Il2rgtm1Wjl/SzJ mouse infected with Plasmodium falciparum Pf3D70087/N9 at 50 mg/kg, po administered as single dose after 0.25 to 23 hrs by LC-MS/MS analysis; format: ADME, organism-based; conditions: in vivo
# [23] = Drug metabolism in mouse liver microsomes assessed as morpholine dealkylated metabolite formation at 5 uM after 60 mins by UPLC-MS analysis; format: ADME, microsome; conditions: 1 h
# [24] = Drug metabolism in rat liver microsomes at 5 uM after 60 mins by UPLC-MS analysis; format: ADME, microsome; conditions: read-out: Drug metabolism
# [25] = Cmax in humanized NOD.Cg-Prkdcscid Il2rgtm1Wjl/SzJ mouse infected with Plasmodium falciparum Pf3D70087/N9 at 30 mg/kg, po administered as single dose after 0.25 to 23 hrs by LC-MS/MS analysis; format: ADME, organism-based; design: dose 30 mg/kg, route oral; conditions: in vivo
# [26] = Drug degradation in mouse liver microsomes assessed as compound half life at 5 uM by UPLC-MS method; format: ADME, microsome
# [27] = Drug metabolism in mouse liver microsomes assessed as open morpholine ring metabolite formation at 5 uM after 60 mins by UPLC-MS analysis; format: ADME, microsome; conditions: 1 h
smiles,measurement,setting,value
c1cc(C2CCC3(CC2)OOC2(OO3)C3CC4CC(C3)CC2C4)ccc1CN1CCOCC1 (configuration not stated),Retention_time,[1],3.68 min
same,Drug metabolism,[2],Metabolite_Notdetected
same,half-life at 1 µM,[3],0.8 h
same,Cmax,[4],109 ng/mL
same,Drug metabolism,[5],Metabolite_Detected
same,Drug metabolism,[6],Metabolite_Notdetected
same,Cmax/dose,Mus musculus [7],0.0218 µg/mL/mg/kg
same,Drug metabolism,[8],Metabolite_Notdetected
same,AUC(0-t),[9],3000 ng·h/mL
same,bioavailability,[10],52%
same,Drug metabolism,[11],Metabolite_Notdetected
same,AUC(0-t),[12],749 ng·h/mL
same,microsomal CLint at 1 µM,[13],118 µL/min/mg
same,Cmax,[14],607 ng/mL
same,Drug metabolism,[15],Metabolite_Notdetected
same,Cmax/dose,Mus musculus [16],0.0025 µg/mL/mg/kg
same,Drug metabolism,[17],Metabolite_Notdetected
same,microsomal CLint at 1 µM,[18],37 µL/min/mg
same,"metabolised at 1 h, 5 µM",[19],63%
same,half-life at 5 µM,[20],0.717 h
same,Tmax,[21],2 h
same,Cmax/dose,Mus musculus [22],0.0121 µg/mL/mg/kg
same,Drug metabolism,[23],Metabolite_Notdetected
same,"metabolised at 1 h, 5 µM",[24],82%
same,Cmax,[25],148 ng/mL
same,half-life at 5 µM,[26],1.45 h
same,Drug metabolism,[27],Metabolite_Notdetected
